Consider 1 compound from PMC5984625, “Dynamic structural states of ClpB involved in its disaggregation function” (Nature Communications, 2018).

The assay addresses T1, ΔN-TClpB (Thermus thermophilus, UniProt Q9RA63).
T1 construct: gene clpB; N-terminal domain deletion (AAA1, M-domain and AAA2 kept); from plasmid pMCB1; expressed in E. coli BL21(DE3) or KRX; purified; hexamer and smaller oligomers
The experiment in a line: fluorescence displacement of mant-ADP. Conditions: per monomer; competitive binding model; 12.5 μM mant-ADP; Mg-ATP; pH 7.5, 20 mM KCl, 5 mM MgCl2, 25 °C; read-out: apparent Kd.

T1 sequence (Q9RA63 141-854, stated change not applied): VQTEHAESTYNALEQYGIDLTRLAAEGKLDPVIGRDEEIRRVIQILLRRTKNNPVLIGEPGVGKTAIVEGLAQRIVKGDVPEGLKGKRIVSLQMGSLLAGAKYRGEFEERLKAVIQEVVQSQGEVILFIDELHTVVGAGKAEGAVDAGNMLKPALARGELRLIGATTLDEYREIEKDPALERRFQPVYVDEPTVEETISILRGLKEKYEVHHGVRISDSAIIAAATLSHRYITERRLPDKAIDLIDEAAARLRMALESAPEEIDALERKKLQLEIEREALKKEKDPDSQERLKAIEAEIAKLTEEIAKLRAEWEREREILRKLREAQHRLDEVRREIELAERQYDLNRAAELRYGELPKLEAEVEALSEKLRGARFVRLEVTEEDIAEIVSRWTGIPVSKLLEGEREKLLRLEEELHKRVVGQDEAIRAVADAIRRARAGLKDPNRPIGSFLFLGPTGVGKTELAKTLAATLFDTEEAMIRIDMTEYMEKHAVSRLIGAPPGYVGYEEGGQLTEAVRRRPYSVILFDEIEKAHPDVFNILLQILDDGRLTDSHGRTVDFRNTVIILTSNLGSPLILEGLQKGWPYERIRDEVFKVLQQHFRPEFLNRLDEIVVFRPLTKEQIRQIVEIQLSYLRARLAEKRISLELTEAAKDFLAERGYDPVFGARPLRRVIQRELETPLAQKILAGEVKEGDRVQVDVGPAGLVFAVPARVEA

Take `Nc1ncnc2c1ncn2[C@@H]1O[C@H](COP(=O)(O)OP(=O)(O)OP(=O)(O)O)[C@@H](O)[C@H]1O` [ATP]: the Kd came to 9.2 µM.
